Assays:
[1] = system: human TLR8 mutant sequence comprising a deletion in the second leucine-rich repeat; assay: TLR8 cellular NFκB-luc reporter assay, mutant TLR8 with deletion in the second leucine-rich repeat; assay type: cell-based; set-up: unit not given here; details: lowest effective concentration, TLR8 mutant with deletion in second leucine-rich repeat
How it was run: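 HEK293 cells transiently co-transfected with CMV-driven mutant TLR7 or TLR8 plasmid plus NFκB-luc reporter, cultured 48 h at 37 °C, then exposed to compound for 6 h at 37 °C, 5% CO2. Luciferase luminescence measured; dose-response curves from quadruplicates.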

[2] = molecular target: T1, human TLR7 (wild type sequence) (Homo sapiens, UniProt Q9NYK1); assay: TLR7 cellular NFκB-luc reporter assay, wild type TLR7; assay type: cell-based; set-up: unit not given here; details: lowest effective concentration, wild type TLR7 (compounds 1-73)
T1 construct: expressed in transfected cells; host or cells: HEK293
T1 sequence (Q9NYK1 27-1049): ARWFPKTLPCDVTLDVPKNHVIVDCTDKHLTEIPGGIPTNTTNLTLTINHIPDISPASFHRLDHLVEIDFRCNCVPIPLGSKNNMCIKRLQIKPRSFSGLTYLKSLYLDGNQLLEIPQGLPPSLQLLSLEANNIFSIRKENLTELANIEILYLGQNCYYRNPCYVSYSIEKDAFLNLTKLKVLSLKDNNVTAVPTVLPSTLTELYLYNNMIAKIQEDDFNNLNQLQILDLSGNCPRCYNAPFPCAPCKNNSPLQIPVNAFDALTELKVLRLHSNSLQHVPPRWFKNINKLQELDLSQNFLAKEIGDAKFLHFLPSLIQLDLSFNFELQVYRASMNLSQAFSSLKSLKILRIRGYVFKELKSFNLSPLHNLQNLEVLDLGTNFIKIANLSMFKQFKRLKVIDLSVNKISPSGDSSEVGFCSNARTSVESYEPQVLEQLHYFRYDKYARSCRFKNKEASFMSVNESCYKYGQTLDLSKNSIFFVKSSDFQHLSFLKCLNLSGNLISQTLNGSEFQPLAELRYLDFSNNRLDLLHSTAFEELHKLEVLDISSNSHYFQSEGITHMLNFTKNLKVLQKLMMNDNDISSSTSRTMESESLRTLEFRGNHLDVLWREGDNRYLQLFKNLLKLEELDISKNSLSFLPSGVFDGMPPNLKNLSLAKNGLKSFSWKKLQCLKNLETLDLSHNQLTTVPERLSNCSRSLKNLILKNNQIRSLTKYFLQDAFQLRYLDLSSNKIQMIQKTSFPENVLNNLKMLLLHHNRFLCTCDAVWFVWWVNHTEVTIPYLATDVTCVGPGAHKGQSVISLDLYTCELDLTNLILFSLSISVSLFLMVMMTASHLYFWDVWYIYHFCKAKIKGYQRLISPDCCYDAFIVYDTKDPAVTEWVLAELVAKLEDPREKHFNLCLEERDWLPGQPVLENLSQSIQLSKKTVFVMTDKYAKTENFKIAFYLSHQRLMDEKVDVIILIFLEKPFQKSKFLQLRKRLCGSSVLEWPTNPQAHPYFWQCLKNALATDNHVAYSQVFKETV
How it was run: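 Transfected HEK293 cells expressing wild type or second leucine-rich repeat-deleted TLR7 or TLR8 together with an NFκB-luciferase reporter are treated with compound for 6 hours. Activation is measured by luciferase, and LEC is the lowest concentration exceeding the assay standard deviation at least two fold.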

CCCCCCNc1nc(N)ncc1OCC [Compound 70]
TLR8-dIRR2_LEC [1]: >24.59
TLR7-wt_LEC [2]: 15.84

CCCCCNc1nc(N)ncc1OC [Compound 56]
TLR8-dIRR2_LEC [1]: 1.47
TLR7-wt_LEC [2]: 12.02

CCCCNc1nc(N)ncc1OCC [Compound 60]
TLR8-dIRR2_LEC [1]: 0.65
TLR7-wt_LEC [2]: 5.58

CCCCCNc1nc(N)ncc1OCC [Compound 63]
TLR8-dIRR2_LEC [1]: 1.94
TLR7-wt_LEC [2]: 2.78

CCCCNc1nc(N)ncc1Oc1ccccc1OC [Compound 64]
TLR8-dIRR2_LEC [1]: 7.65
TLR7-wt_LEC [2]: 8.47

CCCCCOc1cnc(N)nc1NCCCC [Compound 32]
TLR8-dIRR2_LEC [1]: 4.43
TLR7-wt_LEC [2]: 10.60

CCCCNc1nc(N)ncc1OCc1ccc(-c2ccccc2)cc1 [Compound 58]
TLR8-dIRR2_LEC [1]: 2.17
TLR7-wt_LEC [2]: 6.48

CCCCNc1nc(N)ncc1OC [Compound 4]
TLR8-dIRR2_LEC [1]: 1.10
TLR7-wt_LEC [2]: 6.71

CCCCNc1nc(N)ncc1OCC(C)C [Compound 31]
TLR8-dIRR2_LEC [1]: 6.46
TLR7-wt_LEC [2]: >24.59

CCCCCNc1nc(N)ncc1Oc1ccccc1OC [Compound 38]
TLR8-dIRR2_LEC [1]: 22.88
TLR7-wt_LEC [2]: 21.97

Reference: patent US11541050B2, “Pyrimidine derivatives for the treatment of viral infections” (JANSSEN SCIENCES IRELAND UC, priority 2011, dated 2023)
